≈ marks a conversion by molar mass, not a printed value. Read-outs that look alike come from different tables or passages of the source.
Experiments:
[1] = test system: varicella-zoster virus (VZV); experiment: Inhibition of cytopathogenicity of VZV in Hela cell culture; type: cell-based; conditions: for IC50: read-out: IC50 VZV (YS)
Description: (§1) We tested the synthesized compounds for their inhibition of cytopathogenicity of herpes simplex type 1 virus (HSV-1), herpes simplex type 2 virus (HSV-2), and varicella-zoster virus (VZV) in Hela cell culture. These compounds include VI, 12, 13, 40, 42, a mixture of VI and 13 (1:1), ara-A 37, and a mixture of 13 and 37 (1:1). Toxicity of these compounds was evaluated by their ability to cause morphological changes in cells at different concentrations.

Hela cell = experiment: Toxicity: morphological changes in Hela cells; type: cell-based; conditions: in comparison with Ara-A 37
Description: as §1
(§2) ^b Concentration of the compound required to cause microsopically
(§3) visible change or disruption in about 50% of the cell sheet; and […]

[2] = Toxicity: morphological changes in Hela cells; type: cell-based; conditions: human; Hela cells; average of triplicate determinations; read-out: IC50 Hela cell (concentration required to cause microscopically visible change or disruption in about 50% of the cell sheet)
Description: as §1, §2, §3

[3] = test system: herpes simplex type 1 virus (HSV-1); experiment: Inhibition of cytopathogenicity of HSV-1 in Hela cell culture; type: cell-based; conditions: for IC50: read-out: IC50 HSV-1 (KOS)
Description: as §1

[4] = test system: herpes simplex type 2 virus (HSV-2); experiment: Inhibition of cytopathogenicity of HSV-2 in Hela cell culture; type: cell-based; conditions: for IC50: read-out: IC50 HSV-2 (G)
Description: as §1

adenosine deaminase = conditions: background; cited from earlier work
[5] = Partition coefficient (lipophilicity), 1-pentanol / phosphate buffer; conditions: P = [Substrate]1-pentanol/[Substrate]H2O
Description: The layers were separated, and their concentrations were determined by an UV spectrophotometer.
^a Partition coefficients were calculated as follows:
P = [Substrate]1pentanol /[Substrate]H.sbsb.2O.

acute type B hepatitis = conditions: background; cited from earlier work
[6] = background; cited from earlier work
[7] = Solubility in H2O (phosphate buffer); conditions: for solubility at 20 h: 0.10 m phosphate buffer, aqueous buffer; for water solubility (in words): from Table 2; for solubility in H2O: phosphate buffer 0.10M, 20 h, UV absorbance
Description: Each compound (70 mg) listed in Table 2 was agitated in a 25-mL volumetric flask with phosphate buffer (0.10M, 5.0 mL) for 20 h. This solution was filtered from undissolved solid through a sintered glass funnel (4.0-5.5 mesh ASTM) and the concentration of the solution was determined by UV absorbance (Table 2).

HSV-1, HSV-2 and VZV = experiment: Anti-herpes activity in Hela cell culture (all viruses of Table 3); type: cell-based; conditions: for effect on antiviral activity by mixing with compound 13: mixed with compound 13 (Table 3)
Description: as §1

[8] = target: T1, calf mucosal adenosine deaminase (EC 3.5.4.4) (Bos taurus, UniProt P56658); experiment: Deamination kinetics of compounds as substrates of adenosine deaminase; type: biochemical; conditions: for complex formation with adenosine deaminase: Table 1; for rel Vmax: relative, 37 = 1; for deamination by / resistance to adenosine deaminase: in vitro; for deamination by / resistance to adenosine deaminase / adenosine deaminase substrate: in words
T1 construct: calf mucosal adenosine deaminase; from tissue; host or cells: calf mucosa
T1 sequence (P56658 1-363): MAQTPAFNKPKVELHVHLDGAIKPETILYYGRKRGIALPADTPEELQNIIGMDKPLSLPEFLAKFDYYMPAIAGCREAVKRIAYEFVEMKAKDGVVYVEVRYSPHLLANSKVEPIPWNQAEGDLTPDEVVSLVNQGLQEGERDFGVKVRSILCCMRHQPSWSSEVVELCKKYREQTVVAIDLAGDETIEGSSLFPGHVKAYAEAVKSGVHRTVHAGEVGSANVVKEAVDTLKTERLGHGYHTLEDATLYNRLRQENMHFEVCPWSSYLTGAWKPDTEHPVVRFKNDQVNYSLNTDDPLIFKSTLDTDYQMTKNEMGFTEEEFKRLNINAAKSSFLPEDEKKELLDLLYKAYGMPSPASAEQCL
Description: (§4) By following an established procedure [Ogilvie, K. K.; Nguyen-Ba, N.; Gillen, M. F.; Radatus, B. K.; Cheriyan, U. O.; Hanna, H. R.; Smith, K. O.; Galloway, K. S. Synthesis of A Purine Acyclonucleoside Series Having Pronounced Antiviral Activity. The Glyceropurines. Can. J. Chem. 1984, 62, 241-252.], we determined the rates of deamination of VI, 13, 37, 40, and 42 in the presence of calf mucosal adenosine deaminase (EC 3.5.4.4) in buffer solutions.

viral replication = conditions: background; cited from earlier work
[9] = target: T1, calf mucosal adenosine deaminase (EC 3.5.4.4); experiment: Competitive inhibition of adenosine deaminase; type: biochemical; conditions: for type of inhibition of adenosine deaminase / Ki: Ara-A 37 used as substrate; for Ki: Kaplan method
Description: as §4

[10] = Human alphaherpesvirus 3, strain YS, Hela cell culture, average of triplicate determinations
[11] = Human alphaherpesvirus 1, strain KOS, Hela cell culture, average of triplicate determinations
[12] = Human alphaherpesvirus 2, strain G, Hela cell culture, average of triplicate determinations

Row | SMILES | antiviral activity against VZV (in words) ([1]; Hela cell culture) | cellular toxicity (in words) (Hela cell) | CC50 [2] | antiviral activity against HSV-1 (in words) ([3]; Hela cell culture) | antiviral activity against HSV-2 (in words) ([4]; Hela cell culture) | log P [5] | solubility at 20 h [7] | IC50 [1, 10] | IC50 [3, 11] | IC50 [4, 12] | effect on antiviral activity by mixing with compound 13 (HSV-1, HSV-2 and VZV) | complex formation with adenosine deaminase [8] | rel Vmax [8] | inhibition of viral replication (viral replication) | water solubility (in words) [7] | deamination by / resistance to adenosine deaminase [8] | type of inhibition of adenosine deaminase [9] | Ki [9] | solubility in H2O [7] | adenosine deaminase substrate [8] | also measured
1 | CCOP(=O)(O)CCOCn1cnc2c(N)ncnc21.N [Compound 12, Ammonium Ethyl [2-[(Adenin-9-yl)methoxy]ethyl]phosphonate] | exhibit antiviral activity | lower cellular toxicity | 176 µg/mL | exhibit antiviral activity | exhibit antiviral activity | – | – | – | – | – | – | – | – | – | – | – | – | – | – | – | IC50 ([1]; Human alphaherpesvirus 3, HeLa): 25 µg/mL; IC50 ([3]; Human alphaherpesvirus 1, HeLa): 11.3 µg/mL; IC50 ([4]; Human alphaherpesvirus 2, HeLa): 13.8 µg/mL
2 | Nc1ncnc2c1ncn2[C@@H]1O[C@H](CO)[C@@H](O)[C@@H]1O [Compound 37, 9-(β-D-arabinofuranosyl)adenine, reference compound] | – | – | 98.8 µg/mL (≈ 370 µM) | – | – | -0.47 | 400 µg/mL (≈ 1500 µM) | > 128 µg/mL | 10.8 µg/mL (≈ 40.4 µM) | > 128 µg/mL | synergistic effect | can form a complex | 1 | can inhibit viral replication | – | – | – | – | – | – | conversion in vivo to hypoxanthine (Ara-Hx) via deamination by adenosine deaminase (adenosine deaminase): converted in vivo to hypoxanthine (Ara-Hx); potency in treating a patient having acute type B hepatitis (acute type B hepatitis): potent; lipophilicity (in words) [6]: poor lipophilicity
3 | COC(=O)C(C)NP(=O)(CCOCn1cnc2c(N)ncnc21)OC1C(CO)OC(n2cnc3c(N)ncnc32)C1O [Compound 42, 9-(β-D-Arabinofuranosyl)adenine-3'-[(Methoxyalaninyl)[2-(adenin-9-ylmethoxy)ethyl]phosphonates]] | exhibit antiviral activity | lower cellular toxicity | 215 µg/mL (≈ 355 µM) | exhibit antiviral activity | exhibit antiviral activity | 0.87 | 8250 µg/mL (≈ 13600 µM) | 4.82 µg/mL (≈ 7.93 µM) | 0.38 µg/mL (≈ 0.625 µM) | 0.88 µg/mL (≈ 1.45 µM) | – | – | – | – | higher water solubility | completely resisted deamination | – | – | – | – | antiviral activity (in words) (HSV-1, HSV-2 and VZV; Table 3): superior antiviral activity; Km ([8]; adenosine deaminase substrate, buffer solutions): > 1500 µM
4 | Nc1ncnc2c1ncn2COCCP(=O)(O)O [Compound 13, 2-[(Adenin-9-yl)methoxy]ethylphosphonic Acid] | exhibit antiviral activity | lower cellular toxicity | 215 µg/mL (≈ 787 µM) | exhibit antiviral activity | exhibit antiviral activity | 0.07 | – | 16 µg/mL (≈ 58.6 µM) | 3.98 µg/mL (≈ 14.6 µM) | 5.86 µg/mL (≈ 21.5 µM) | – | – | 1.49 × 10^-6 | – | higher water solubility | – | competitive inhibition | 18.2 µM | 13640 µg/mL (≈ 49900 µM) | adenosine deaminase substrates | inhibition of adenosine deaminase (in words) ([9]; Table 1): inhibits adenosine deaminase; efficiency as inhibitor of adenosine deaminase versus acyclonucleoside VI ([9]; compared with VI): acted more efficiently than acyclonucleoside VI; Vmax compared with that of VI (times less) ([8]; versus VI): ~ 10^-4 times less
5 | Nc1ncnc2c1ncn2COCCO [VI, Acyclic adenosine, reference compound] | – | – | 266 µg/mL (≈ 1270 µM) | – | – | 0.98 | – | 6.5 µg/mL (≈ 31.1 µM) | 4.43 µg/mL (≈ 21.2 µM) | 8.26 µg/mL (≈ 39.5 µM) | synergistic effect | can form a complex | 1.52 × 10^-2 | can inhibit viral replication | – | – | competitive inhibition | 142 µM | 1950 µg/mL (≈ 9320 µM) | adenosine deaminase substrates | –
6 | Nc1ncnc2c1ncn2COCCP(=O)(O)O[C@H]1[C@H](O)[C@H](n2cnc3c(N)ncnc32)O[C@@H]1CO [Compound 40, 9-(β-D-Arabinofuranosyl)adenine-3'-[[2-(Adenin-9-ylmethoxy)ethyl]phosphonate]] | not active against VZV | lower cellular toxicity | 346 µg/mL (≈ 662 µM) | exhibit antiviral activity | exhibit antiviral activity | -0.68 | – | > 128 µg/mL | 8.97 µg/mL (≈ 17.2 µM) | 16.3 µg/mL (≈ 31.2 µM) | – | – | 7.64 × 10^-2 | – | higher water solubility | slow rate of deamination | – | – | 2460 µg/mL (≈ 4710 µM) | a substrate of adenosine deaminase | Vmax less than that of Ara-A 37 ([8]; versus Ara-A 37): 92%
